pEC50: −log10 of the molar value. Read-outs that look alike come from different tables or passages of the source. Each block holds one molecule with its values, some of them ahead of it.
Key:
Type in all cases: cell-based
[1] = test system: pancreatic BxPC-3 cells; assay: PrestoBlue cell viability assay, 5 days treatment; conditions: for pEC50: Homo sapiens, 120 h, PrestoBlue; for toxigenic effect of prodrug combined with Pd^0-resins (BOOM conversion): BxPC-3, prodrug 30 μM + Pd^0-resin 1 mg/mL
Procedure: (§1) The toxicities of 5FU and its prodrugs were compared by performing dose-response studies with 5FU and Pro-5FU (0.01 μM to 1 mM). Doses of Pro-5FU and 5FU (0.01, 0.03, 0.1, 0.3, 1, 3, 10, 30 and 100 μM, for both cell lines, and additional doses of 300 μM and 1,000 μM for colorectal HCT116 cells) were incubated with cells for 5 days and cell viability measured to determine the corresponding EC values. Cell viability was analysed by fluoresce intensity nm; nm) after 45 min incubation with PrestoBlue™ Reagent (Life Technologies).
(§2) The toxigenic effect as a result of in situ generation of 5FU in cell culture was determined by incubating colorectal HCT116 cells or pancreatic BXPc-3 cells in tissue culture media containing 0.1% (viv) DMSO and a) Pd^0-resin (1 mg/mL, negative control); b) prodrug (negative, control); or c) Pd^0-resin (1 mg prodrug (reaction assay). Cells incubated in 0.1% (v/v) DMSO in media was used as an untreated cell reference standard (100% viability). A PrestoBlue® cell viability assay as described above was carried out and fluorescent intensities compared to the untreated cell control. Prodrug concentrations were 100 μM for HCT116 cells, and 30 μM for BxPC-3 cells.
(§3) HCT116 and BXPc-3 cells were plated in Dulbecco's Modified Eagle Media (DMEM) and Roswell Park Memorial Institute (RPMI) respectively, supplemented with serum (10% FBS) and L-glutamine (2 mM). Cells were seeded in a 96 wail plate format with a density of either 30.000 cells and incubated for 48 h at 37° C. and 5% CO2 before treatment. Each well was then replaced with fresh media containing: Pd^0-resins (1 mg/ml) (negative control); prodrug (0.01 μM to 1 mM) in DMSO (0.1% v/v) (negative control); 5FU (0.01 μM to 1 mM) in DMSO (0.1% v/v) (positive control); or a combination of Pd^0 resin+prodrug (0.01 μM to 1 mM in 0.1% v/v DMSO). Cells incubated in 0.1% (v/v) DMSO in media were used as untreated cell reference standard (i.e. 100% cell viability). Cells were incubated in the fresh media for 5 days. PrestoBlue cell viability reagent (Life Technologies) (10% v/v) was then added to each well and the plate incubated for 45 min, Fluorescence intensity values (detected using a PerkinElmer EnVision 2101 multilabel reader with excitation filter at 540 nm and emissions filter at 590 nm) were determined relative to the untreated cell control.

[2] = test system: colorectal HCT116 cells; assay: PrestoBlue cell viability assay, 5 days treatment; conditions: for toxigenic effect of prodrug combined with Pd^0-resins (BOOM conversion): HCT116, prodrug 100 μM + Pd^0-resin 1 mg/mL; for cytotoxic effect / effect on cell viability of prodrug alone: HCT116, without palladium, 5 days, doses up to 1,000 μM (FIG. 18A: 0.1-300 μM)
Procedure: as §1, §2, §3

[3] = test system: total p53 protein and phosphorylated p53 (Serine 15) in HCT116 cells; assay: Zeptosens Reverse Phase Protein Microarray analysis; conditions: HCT116, 100 μM, 24 h exposure
Procedure: Post-translational modifications of cancer relevant pathways (including p53) were quantified by antibody-based proteomics across time-series studies using Zeptosens Reverse Phase Protein Microarray analysis.
Cells were plated in their respective supplemented media in a 6 well plate at a density of 240,000 cells/mL and incubated for 46 h. Before adding to the cells, Fro-5FU (100 μM for HCT116) and Pd^0-resins (1 mg/mL) were incubated for 24h to overcome the time relapse required to convert Pro-5FU into 5FU. Cells were treated with the Pd^8 resin+Pro-5FU combination and the controls (as before: untreated cells; Pd^0; Pro-5FU; and 5FU) and incubated for 6 and 24 h. Afterwards, the cells were washed with PBS (2×3 mL) and lysed with Zeptosens CLB1 lysis buffer (90 μl). Samples were analyzed by Zeptosens RPPA using the following specific conditions. Tumor cell lysates were normalized to a uniform protein concentration with spotting buffer CSBL1 (Zeptosens-Bayer) prior to preparing a final 4-fold concentration series of; 0.2; 0.15; 0.1 and […]. […] A weighted linear fit through the 4-fold concentration series was used to calculate relative fluorescence intensity (RFI) value for each sample replicate. […] Abundance levels of total p53 protein and phosphorylated p53 (Serine 15) were plotted as RFI data calculated by the ZeptoView™ 3.1 software.

[4] = test system: HCT116 cells; assay: Real-time confluence study (Incucyte live-cell imaging); conditions: HCT116, 100 μM, 5 days (120 h)
Procedure: FIGS. 9A and 9B show real-time cell confluence study data for Pro-5FU and 5FU (HCT116 cells in FIG. 9A and BXPc-3 cells in FIG. 9B) plotting cell proliferation (indicated by % phase object confluence) against time. Cell proliferation was monitored for 5 days (120 h) using the high-content live-cell imaging system Incucyte™ (Essen BioScience) placed in an incubator (5% CO2, 37° C.), Pro-5FU and 5FU were used at 100 μM and 10 μM for HCT116 and BXPc-3 cells, respectively.
(§4) To study the phenotypic effect of the prodrug catalyst system compared to 5FU, cell proliferation was monitored for 5 days (120 h) using the high-content live-cell imaging system Incucyte™ Essen BioScience) placed in an incubator (5% CO2, 37° C.). Cell confluence analysis and supplementary movies 1 and 2 were carried out using the Incucyte software. Experiments (performed as described above for the dose response cell viability assay) were imaged by time-lapse contrast phase microscopy and cell growth represented as a function of total cell confluence.

[5] = test system: BxPC-3 cells; assay: as above; conditions: BxPC-3, 30 μM, 5 days (120 h)
Procedure: FIGS. 9A and 9B show real-time cell confluence study data for Pro-5FU and 5FU (HCT116 cells in FIG. 9A and BXPc-3 cells in FIG. 9B) plotting cell proliferation (indicated by % phase object confluence) against time. […]
as §4

[6] = test system: pancreatic BxPC-3 cells; assay: Test for competitive inhibition by prodrug (cell viability); conditions: BxPC-3, 5FU 1 μM + Pro-5FU 0.1-1,000 μM, prodrug/drug ratio up to 100:1
Procedure: (§5) Cells were incubated with 5FU (10 μM for HCT116 cells and 1 μM for BxPC-3 cells) in combination with increasing doses of Pro-5FU (0.1-1,000 μM), and cell viability determined.

[7] = test system: colorectal HCT116 cells; assay: as above; conditions: HCT116, 5FU 10 μM + Pro-5FU 0.1-1,000 μM, prodrug/drug ratio up to 100:1
Procedure: as §5

pEC50 ([1]; BXPc-3, 5 days incubation, read-out: EC50 5FU): 6.87
pEC50 ([1]; BxPC-3, 5 days incubation, read-out: EC50): 6.87
pEC50 ([2]; Homo sapiens, HCT-116, 120 h, HCT116, 5 days incubation, PrestoBlue, read-out: EC50 5FU): 5.70
Structure (SMILES): O=c1[nH]cc(F)c(=O)[nH]1 [Compound 5FU, 5-fluorouracil]
abundance of total and Ser15-phosphorylated p53 [3]: overexpressed
cell growth (confluence) vs time [4]: decreased rapidly after a few hours
cell growth (confluence) vs time [5]: decreased rapidly after a few hours

Structure (SMILES): C=CCn1cc(F)c(=O)[nH]c1=O [All-5FU]
toxigenic effect of prodrug combined with Pd^0-resins (BOOM conversion) [1]: No appreciable cytotoxicity
toxigenic effect of prodrug combined with Pd^0-resins (BOOM conversion) [2]: No appreciable cytotoxicity

Structure (SMILES): C#CCn1c(=O)[nH]cc(F)c1=O [Compound 6]
cytotoxic effect / effect on cell viability of prodrug alone [2]: no effect

Structure (SMILES): O=c1[nH]c(=O)n([C@H]2C[C@H](O)[C@@H](CO)O2)cc1F [FUDR, floxuridine]
times more potent than 5-FU [2]: around 50 times

Structure (SMILES): C#CCn1c(=O)c(F)cn([C@H]2CC(O)[C@@H](CO)O2)c1=O (stereo partly shown) [Compound 11, 3-propergyl-floxuridine]
times less cytotoxic effect on cell viability than floxuridine ([2]; HCT116, dose range 0.003-30 μM, without palladium): over 1000 times

fold reduction in effect, EC50 (Pro-5FU)/EC50 (5FU) ([2]; HCT116, prodrug without palladium): greater than 500 fold
Structure (SMILES): C#CCn1cc(F)c(=O)[nH]c1=O [Pro-5FU]
fold reduction in effect versus 5FU ([1]; BxPC-3, prodrug without palladium): greater than 700 fold
cytotoxic effect / effect on cell viability of prodrug alone [2]: no effect
abundance of total and Ser15-phosphorylated p53 [3]: no induction
effect of prodrug on cytotoxicity of 5FU [6]: no antagonistic effect
effect of prodrug on cytotoxicity of 5FU [7]: no antagonistic effect

Structure (SMILES): O=c1[nH]c(=O)n(Cc2ccccc2)cc1F [Bn-5FU]
toxigenic effect of prodrug combined with Pd^0-resins (BOOM conversion) [1]: low levels of toxicity
toxigenic effect of prodrug combined with Pd^0-resins (BOOM conversion) [2]: low levels of toxicity

Source: patent US20180362473A1, “BIOORTHOGONAL METHODS AND COMPOUNDS” (The University Court of the University of Edinburgh, priority 2013, published 2018)
